According to ChEMBL document CHEMBL4270545, “Design, synthesis and biological evaluation of 3-piperazinecarboxylate sarsasapogenin derivatives as potential multifunctional anti-Alzheimer agents” (2018):
Activity calls are given as the source filed them. The rule behind the calls is not given here.

Experiments:
PC-12 [1] = assay: Neuroprotective activity against H2O2-induced cytotoxicity in rat PC12 cells assessed as cell viability at 10 uM after 24 hrs by MTT assay relative to control; assay type: functional; conditions: for viability at 10 µM: PC-12, 24 h, read-out: Activity
PC-12 [2] = assay: Neuroprotective activity against amyloid beta (1 to 42)-induced cytotoxicity in rat PC12 cells assessed as cell viability at 30 uM after 48 hrs by MTT assay (reference value: 55.3 to 64.4%); assay type: functional; conditions: PC-12, 48 h, read-out: Activity
PC-12 [3] = assay: Neuroprotective activity against amyloid beta (1 to 42)-induced cytotoxicity in rat PC12 cells assessed as cell viability at 10 uM after 48 hrs by MTT assay (reference value: 55.3 to 64.4%); assay type: functional; conditions: PC-12, 48 h, read-out: Activity
PC-12 [4] = assay: Neuroprotective activity against H2O2-induced cytotoxicity in rat PC12 cells assessed as cell viability at 1 mM after 24 hrs by MTT assay relative to control; assay type: functional; conditions: PC-12, 24 h, read-out: Activity
RAW264.7 = assay: Antiinflammatory activity in mouse RAW264.7 cells assessed as inhibition of LPS-induced nitric oxide production at 10 uM preincubated for 30 mins followed by LPS addition measured after 20 hrs by Griess assay relative to control; assay type: functional
Mus musculus = assay: Antialzheimer activity in cognitive deficit ICR mouse model assessed as reduction in amyloid beta (1 to 42)-induced spatial memory impairment at 6 mg/kg, ig qd administered for 7 consecutive days by Morris water maze test; assay type: functional, organism-based
PC-12 [5] = assay: Neuroprotective activity against amyloid beta (1 to 42)-induced cytotoxicity in rat PC12 cells assessed as cell viability at 1 uM after 48 hrs by MTT assay (reference value: 55.3 to 64.4%); assay type: functional; conditions: PC-12, 48 h, read-out: Activity

| Structure (SMILES) | viability at 10 µM (PC-12 [1]) [%] | also measured |
| --- | --- | --- |
| C[C@H]1CC[C@@]2(OC1)O[C@H]1C[C@H]3[C@@H]4CC[C@@H]5C[C@@H](OC(=O)N6CCN(C(=O)c7ccc(N)cc7)CC6)CC[C@]5(C)[C@H]4CC[C@]3(C)[C@H]1[C@@H]2C | – | Activity (PC-12 [1]): inactive |
| C[C@H]1CC[C@@]2(OC1)O[C@H]1C[C@H]3[C@@H]4CC[C@@H]5C[C@@H](OC(=O)N6CCN(Cc7ccccc7)CC6)CC[C@]5(C)[C@H]4CC[C@]3(C)[C@H]1[C@@H]2C | 18.7 | – |
| C[C@H]1CC[C@@]2(OC1)O[C@H]1C[C@H]3[C@@H]4CC[C@@H]5C[C@@H](O)CC[C@]5(C)[C@H]4CC[C@]3(C)[C@H]1[C@@H]2C [SARSASAPOGENIN] | 3.3 | viability at 30 µM (PC-12 [2]): 58.9%; viability at 10 µM (PC-12 [3]): 79.2% |
| Cc1ccc(CN2CCN(C(=O)O[C@H]3CC[C@@]4(C)[C@H](CC[C@@H]5[C@@H]4CC[C@]4(C)[C@@H]6[C@H](C[C@@H]54)O[C@]4(CC[C@H](C)CO4)[C@H]6C)C3)CC2)cc1 | 19.2 | – |
| C[C@H]1CC[C@@]2(OC1)O[C@H]1C[C@H]3[C@@H]4CC[C@@H]5C[C@@H](OC(=O)N6CCN(Cc7ccc(O)cc7)CC6)CC[C@]5(C)[C@H]4CC[C@]3(C)[C@H]1[C@@H]2C | 5.8 | – |
| C[C@H]1CC[C@@]2(OC1)O[C@H]1C[C@H]3[C@@H]4CC[C@@H]5C[C@@H](OC(=O)N6CCN(S(=O)(=O)c7ccc(F)cc7)CC6)CC[C@]5(C)[C@H]4CC[C@]3(C)[C@H]1[C@@H]2C | 8.5 | – |
| CC(=O)N[C@@H](CS)C(=O)O [ACETYLCYSTEINE] | – | viability at 1000 µM (PC-12 [4]): 35.3% |
| C[C@H]1CC[C@@]2(OC1)O[C@H]1C[C@H]3[C@@H]4CC[C@@H]5C[C@@H](OC(=O)N6CCN(S(=O)(=O)c7ccccc7)CC6)CC[C@]5(C)[C@H]4CC[C@]3(C)[C@H]1[C@@H]2C | 20.8 | inhibition (RAW264.7): inactive |
| CCCN1CCN(C(=O)O[C@H]2CC[C@@]3(C)[C@H](CC[C@@H]4[C@@H]3CC[C@]3(C)[C@@H]5[C@H](C[C@@H]43)O[C@]3(CC[C@H](C)CO3)[C@H]5C)C2)CC1 | 18.9 | – |
| C[C@H]1CC[C@@]2(OC1)O[C@H]1C[C@H]3[C@@H]4CC[C@@H]5C[C@@H](OC(=O)N6CCN(C(=O)c7ccccc7)CC6)CC[C@]5(C)[C@H]4CC[C@]3(C)[C@H]1[C@@H]2C | 17.6 | – |
| COc1ccc(CN2CCN(C(=O)O[C@H]3CC[C@@]4(C)[C@H](CC[C@@H]5[C@@H]4CC[C@]4(C)[C@@H]6[C@H](C[C@@H]54)O[C@]4(CC[C@H](C)CO4)[C@H]6C)C3)CC2)cc1 | 33.1 | inhibition at 10 µM (RAW264.7): 1.3% |
| Cc1ccc(S(=O)(=O)N2CCN(C(=O)O[C@H]3CC[C@@]4(C)[C@H](CC[C@@H]5[C@@H]4CC[C@]4(C)[C@@H]6[C@H](C[C@@H]54)O[C@]4(CC[C@H](C)CO4)[C@H]6C)C3)CC2)cc1 | 29.5 | inhibition at 10 µM (RAW264.7): 4.8% |
| C[C@H]1CC[C@@]2(OC1)O[C@H]1C[C@H]3[C@@H]4CC[C@@H]5C[C@@H](OC(=O)N6CCN(Cc7ccc(F)cc7)CC6)CC[C@]5(C)[C@H]4CC[C@]3(C)[C@H]1[C@@H]2C | 7.2 | – |
| COc1ccc(C(=O)N2CCN(C(=O)O[C@H]3CC[C@@]4(C)[C@H](CC[C@@H]5[C@@H]4CC[C@]4(C)[C@@H]6[C@H](C[C@@H]54)O[C@]4(CC[C@H](C)CO4)[C@H]6C)C3)CC2)cc1 | 17.7 | – |
| COc1cc(CN2CCN(C(=O)O[C@H]3CC[C@@]4(C)[C@H](CC[C@@H]5[C@@H]4CC[C@]4(C)[C@@H]6[C@H](C[C@@H]54)O[C@]4(CC[C@H](C)CO4)[C@H]6C)C3)CC2)ccc1O | 43.9 | Activity (Mus musculus): Active; inhibition at 10 µM (RAW264.7): 24.4%; viability at 10 µM (PC-12 [3]): 91.3%; viability at 1 µM (PC-12 [5]): 55.8% |
| C[C@H]1CC[C@@]2(OC1)O[C@H]1C[C@H]3[C@@H]4CC[C@@H]5C[C@@H](OC(=O)N6CCN(Cc7ccc(C#N)cc7)CC6)CC[C@]5(C)[C@H]4CC[C@]3(C)[C@H]1[C@@H]2C | 26.4 | inhibition at 10 µM (RAW264.7): 21.6% |
| C[C@H]1CC[C@@]2(OC1)O[C@H]1C[C@H]3[C@@H]4CC[C@@H]5C[C@@H](OC(=O)N6CCN(Cc7ccc(N(C)C)cc7)CC6)CC[C@]5(C)[C@H]4CC[C@]3(C)[C@H]1[C@@H]2C | 22 | inhibition at 10 µM (RAW264.7): 5.6% |
| C[C@H]1CC[C@@]2(OC1)O[C@H]1C[C@H]3[C@@H]4CC[C@@H]5C[C@@H](OC(=O)N6CCN(C(=O)c7ccc(Cl)cc7)CC6)CC[C@]5(C)[C@H]4CC[C@]3(C)[C@H]1[C@@H]2C | 20.2 | inhibition (RAW264.7): inactive |
| C[C@H]1CC[C@@]2(OC1)O[C@H]1C[C@H]3[C@@H]4CC[C@@H]5C[C@@H](OC(=O)N6CCNCC6)CC[C@]5(C)[C@H]4CC[C@]3(C)[C@H]1[C@@H]2C | 3.4 | – |
| CCS(=O)(=O)N1CCN(C(=O)O[C@H]2CC[C@@]3(C)[C@H](CC[C@@H]4[C@@H]3CC[C@]3(C)[C@@H]5[C@H](C[C@@H]43)O[C@]3(CC[C@H](C)CO3)[C@H]5C)C2)CC1 | 6.8 | – |
| C[C@H]1CC[C@@]2(OC1)O[C@H]1C[C@H]3[C@@H]4CC[C@@H]5C[C@@H](OC(=O)N6CCN(Cc7ccccc7O)CC6)CC[C@]5(C)[C@H]4CC[C@]3(C)[C@H]1[C@@H]2C | 36.6 | inhibition at 10 µM (RAW264.7): 15.2%; viability at 10 µM (PC-12 [3]): 95.3%; viability at 1 µM (PC-12 [5]): 59.3% |
